Experimental data as given in US9988607B2, “Artificial three-dimensional microenvironment niche culture and methods of using the same” (priority 2008, dated 2018).

Key:
Assay type in all cases: cell-based, human
[1] = test system: OCT3/4, SOX2, LIN28, KLF4 promoters; assay: Promoter-GFP reporter screen of compound library in HDF cells in 3D hyaluronan hydrogel niche culture; conditions: for Activation of expression of one or more of the target promoters: GFP fluorescence after 4 days of incubation, normalized to ViPS control; for Optimized Concentration: empirically determined through repeat experiments with a broad range of concentrations
Protocol: (§1) Replicate microspots were prepared in Complete Media and transfected with reporter constructs for genes critically expressed in pluripotent cells. The reporter constructs contained promoter regions of one of the genes listed in Table 6 operably linked to a green fluorescent protein (GFP) coding region in pGlow TOPO TA (Invitrogen).
(§2) Briefly, a transient transfection mixture containing Lipofectamine 2000 (0.4 μl/24 μl total hyaluronan volume, Invitrogen) and promoter-Green Fluorescent Protein (GFP) construct in (500 ng) was added to each microspot.
(§3) Library screening was performed by including dilution series of each compound in mTeSR-1 medium, to HDF cells embedded in 3D hyaluronan hydrogel microenvironment niche culture optimized as described above in EXAMPLES 1 and 2.
(§4) After 4 days of incubation with target compounds, relative fluorescence from expression of the GFP constructs was recorded using a fluorescent microplate reader. Values were normalized to reflect percent fluorescence of control (ViPS) cells.
Compounds that activated expression of one or more of the target promoters were scored as positive.

HDF cells = assay: ViPS pluripotency factor replacement: chemical induction of iPS colonies in 3D microenvironment niche culture; conditions: HDF in 3D ES cell microenvironment niche culture; preliminary
Text: To test the possibility of chemical induction of pluripotency in human dermal fibroblasts, well known compounds affecting these pluripotency factors were substituted for expression of the pluripotency factors from viral expression vectors. Candidate compounds included those that affect the Wnt pathway because activation of this pathway had been reported to be involved in OCT 3/4, Sox-2, and Nanog activation. The initial compounds tested included: BIO (6-bromoindirubin-3′-oxime), a specific pharmacological inhibitor of glycogen synthase kinase known to stimulate Wnt signaling and maintain pluripotency in human and mouse embryonic stem cells (Sato et al., Nat. Med. (2004) 10:55-63); prostaglandin E2 (PGE2), reported to be an activator of Wnt pathway via “cross talk” at the beta-catenin signal level; valproic acid, a histone deacetylase (HDAC) inhibitor, and Wnt pathway activator (Bug et al. (2005) Cancer Res 65:2537-41). […] These compounds were chosen for further experimentation since their mechanism of activity was previously determined and they appeared to activate the pluripotency signal transduction pathway (e.g. Wnt pathway).
Compounds were added to HDF cells grown in 3D ES cell microenvironment niche cultures (prepared as described above in EXAMPLES 1 and 2), to evaluate whether they would rescue iPS phenotype in the absence of individual pluripotency factors introduced retrovirally. ViPS cells, induced with lentiviral transduction of pluripotency factor genes (OCT4, Sox2, Nanog, Klf4) as described by Takahashi et al. ((2007), Cell 131:1-12). Data is presented as the number of colonies with iPS morphology observed per 100,000 host cells.
Stem cell self renewal optimized 3-D hydrogel ES microenvironment niche conditions (as described in EXAMPLEs 1 and 2) were found necessary for chemical induction of iPS state. Pluripotency was not observed when standard tissue culture plates or those coated with Matrigel or methylcellulose were substituted for the 3D microenvironment conditions.

SOX2 promoter = assay: Promoter-GFP reporter screen in HDF cells, SOX2 promoter; conditions: FIG. 7
Protocol: as §1, §2, §3, §4

OCT4 promoter = assay: Promoter-GFP reporter screen in HDF cells, OCT4 promoter; conditions: FIG. 7
Protocol: as §1, §2, §3, §4

SMILES	Activation of expression of one or more of the target promoters [1]	Optimized Concentration [1] [µM]	Replacement of virally transduced pluripotency factors (colonies with iPS morphology per 100,000 host cells) (HDF cells)	Expression of SOX2 promoter (SOX2 promoter)	Expression of OCT4 promoter (OCT4 promoter)
CCCCC[C@H](O)/C=C/[C@H]1[C@H](O)CC(=O)[C@@H]1C/C=C\CCCC(=O)O [D2-6542, Prostaglandin E2]	positive	10	could be used to replace virally transduced pluripotency factors		
O=C1Nc2ccc([N+](=O)[O-])cc2C1=C1Nc2ccccc2C1=NO [D3-8976, Indirubin-5-nitro-3′-oxime]	positive	4			
O=C1Nc2cc(Br)ccc2/C1=C1/Nc2ccccc2/C1=N\O [D9-6452, 6-bromoindirubin-3′-oxime]	positive	4	could be used to replace virally transduced pluripotency factors		
CCCCC[C@H](O)/C=C/[C@H]1C(=O)C=C[C@@H]1C/C=C\CCCC(=O)O [D9-9811, Prostaglandin J2]	positive	10	could be used to replace virally transduced pluripotency factors		
CCCC(CCC)C(=O)O [D10-8976, Valproic Acid]	positive	2000	could be used to replace virally transduced pluripotency factors	stimulate expression	stimulate expression
Br.Cc1ccc(C(=O)Cn2c3c(sc2=N)CCCC3)cc1 [D12-2234, 1-(4-Methylphenyl)-2-(4,5,6,7-tetrahydro-2-imino-3(2H)-benzothiazolyl)ethanone HBr]	positive	30			
Cc1cccc(-c2n[nH]cc2-c2ccc3ncccc3n2)n1 [D21-8765, 2-(3-(6-Methylpyridin-2-yl)-1H-pyrazol-4-yl)-1,5-naphthyridine]	positive	25000			
